Patent US20240270751A1, “Pyrazolopyridinone Compounds” (BeiGene Ltd., priority 2021, published 2024)

Key:
DGKζ = DGKζ (Homo sapiens (Human), UniProt Q13574); test: Biochemical DGK IC50 assay, DGKζ ADP-Glo assay; conditions: 0.5 nM enzyme, 140 μM ATP, 80 μM DAG; read-out: DGKζ ADP-Glo assay IC50
Description: (§1) Enzymatic reactions of DGKζ, DGKα and DGKδ were performed using ADP-Glo assay with lipid micelle substrate. […] Full length DGKα (D21-10BG, SignalChem) and full length DGKδ (D23-10G, SignalChem) were purchased. Lipid micelle was prepared by dissolving DAG (Sigma, 317505-10MG) and PS (Sigma, P7769-100MG) with chloroform which was furtherly removed by rotary evaporation. The resulted product was resuspended in buffer containing 25 mM HEPES pH 7.0, 0.5 mM EDTA and 160 mM Octyl β-D glucopyranoside by vigorous mixing and ultrasonic (IID, Scientz).
(§2) The ranges of compounds final concentration were 1.55˜10000 nM or 23.3˜150000 nM. 3 μL 2× enzyme solution was added to wells.
Human His-TEV-DGK-zeta-pFastBac1 and human baculovirus samples was generated using the Bac-to-Bac baculovirus expression system (Invitrogen) according to the manufacturer's protocol. The DNA used for expression of DGK-zeta, have SEQ ID Nos: 1. Baculovirus amplification was achieved using infected SF9 cells at 1:2000 virus/cells ratios, and grown for 96 hours at 27° C. post-transfected.
The expression scaled up for each protein was carried out in the […] from CORNING. 4 L of 3×10^6 cells/mL Sf9 cells (Expression System, Invitrogen) grown in SF900™ II SFM insect medium (Expression System) was infected with virus stock at 1:200 virus/cells ratio, and grown for 48 hours at 27° C. post-transfection. The infected cell culture was harvested by centrifugation at 6000 rpm for 15 min 4° C. in a SORVALL LYNX6000 centrifuge. The cell pellets were stored at −80° C.
Full length human DGKζ produced as described above, was purified from Sf9 baculovirus-infected insect cell paste. The cells were lysed using sonication method, and the lysates were clarified by centrifugation.

DGKα = DGKα (Homo sapiens (Human), UniProt P23743); test: Biochemical DGK IC50 assay, DGKα ADP-Glo assay; conditions: 7.5 nM enzyme, 140 μM ATP, 80 μM DAG
Description: as §1, §2

Sequence of DGKα (P23743 whole entry): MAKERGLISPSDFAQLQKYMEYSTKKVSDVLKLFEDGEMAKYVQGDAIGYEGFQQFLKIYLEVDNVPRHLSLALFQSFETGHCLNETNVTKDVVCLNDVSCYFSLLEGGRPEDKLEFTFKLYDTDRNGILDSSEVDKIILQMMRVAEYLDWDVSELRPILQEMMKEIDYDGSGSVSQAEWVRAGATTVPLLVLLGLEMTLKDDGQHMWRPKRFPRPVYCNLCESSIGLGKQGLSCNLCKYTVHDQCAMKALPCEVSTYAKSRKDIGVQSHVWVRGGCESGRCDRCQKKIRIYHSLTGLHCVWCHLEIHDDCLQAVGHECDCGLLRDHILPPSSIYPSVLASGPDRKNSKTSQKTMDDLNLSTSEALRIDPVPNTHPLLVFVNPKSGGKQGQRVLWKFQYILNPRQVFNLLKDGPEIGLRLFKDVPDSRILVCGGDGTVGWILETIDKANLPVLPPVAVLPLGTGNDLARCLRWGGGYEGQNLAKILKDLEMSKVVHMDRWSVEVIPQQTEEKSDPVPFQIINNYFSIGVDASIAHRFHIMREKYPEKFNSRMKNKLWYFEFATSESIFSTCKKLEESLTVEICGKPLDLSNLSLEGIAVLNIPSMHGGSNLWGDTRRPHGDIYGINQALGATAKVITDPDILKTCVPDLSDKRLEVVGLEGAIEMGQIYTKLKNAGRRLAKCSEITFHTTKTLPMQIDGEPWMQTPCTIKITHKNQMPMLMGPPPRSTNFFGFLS
Sequence of DGKζ (Q13574 other isoform, or with tags, fused parts or gaps): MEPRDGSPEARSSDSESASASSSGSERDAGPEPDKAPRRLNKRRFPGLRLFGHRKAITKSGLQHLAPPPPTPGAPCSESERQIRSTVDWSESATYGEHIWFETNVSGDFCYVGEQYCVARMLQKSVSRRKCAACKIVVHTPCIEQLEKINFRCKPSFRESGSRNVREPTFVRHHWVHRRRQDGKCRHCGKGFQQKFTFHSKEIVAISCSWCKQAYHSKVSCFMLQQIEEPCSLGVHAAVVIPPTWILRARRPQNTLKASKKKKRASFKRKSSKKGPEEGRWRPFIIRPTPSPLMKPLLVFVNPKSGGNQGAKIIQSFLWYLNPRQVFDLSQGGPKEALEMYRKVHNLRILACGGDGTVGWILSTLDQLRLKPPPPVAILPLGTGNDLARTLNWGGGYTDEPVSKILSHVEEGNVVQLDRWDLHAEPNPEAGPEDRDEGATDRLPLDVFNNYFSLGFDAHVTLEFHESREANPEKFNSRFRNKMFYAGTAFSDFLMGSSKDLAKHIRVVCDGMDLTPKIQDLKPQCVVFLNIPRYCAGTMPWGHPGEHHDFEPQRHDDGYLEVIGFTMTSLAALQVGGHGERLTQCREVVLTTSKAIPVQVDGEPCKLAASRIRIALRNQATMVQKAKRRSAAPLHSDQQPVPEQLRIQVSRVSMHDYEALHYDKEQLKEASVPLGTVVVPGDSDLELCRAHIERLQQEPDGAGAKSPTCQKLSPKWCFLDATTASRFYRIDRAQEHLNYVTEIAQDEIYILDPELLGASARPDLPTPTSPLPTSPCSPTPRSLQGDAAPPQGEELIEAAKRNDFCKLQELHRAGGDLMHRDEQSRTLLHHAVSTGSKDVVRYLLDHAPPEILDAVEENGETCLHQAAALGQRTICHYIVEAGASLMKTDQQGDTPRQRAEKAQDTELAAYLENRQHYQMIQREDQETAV

Structure (SMILES) | IC50 (DGKζ) [nM] | IC50 (DGKα) [nM]
CC[C@H]1CN(C(C)c2ccc3nccnc3c2)[C@H](CC)CN1c1cc(=O)n(C)c2cn(CC#N)nc12 (mixture of isomers) [Compound A28, 2-(7-((2S,5R)-2,5-diethyl-4-(1-(quinoxalin-6-yl)ethyl)piperazin-1-yl)-4-methyl-5-oxo-4,5-dihydro-2H-pyrazolo[4,3-b]pyridin-2-yl)acetonitrile] | 6.7 | 310
Cc1nc2ccc(C(C)N3C[C@H](C)N(c4cc(=O)n(C)c5cn(CC#N)nc45)C[C@H]3C)cn2n1 (mixture of isomers) [Compound A321] |  | > 150000
CC(c1ccc2nccnc2c1)N1C[C@H](C)N(c2cc(=O)n(C)c3cn(CC#N)nc23)C[C@H]1C (mixture of isomers) [Compound A2, 2-(7-((2S,5R)-2,5-dimethyl-4-(1-(quinoxalin-6-yl)ethyl)piperazin-1-yl)-4-methyl-5-oxo-4,5-dihydro-2H-pyrazolo[4,3-b]pyridin-2-yl)acetonitrile] | 71 | 7700
CC#CCn1cc2c(n1)c(N1C[C@@H](C)N(C(C)c3ccc4nccnc4c3)C[C@@H]1C)cc(=O)n2C (mixture of isomers) [Compound A22, 2-(but-2-yn-1-yl)-7-((2S,5R)-2,5-dimethyl-4-(1-(quinoxalin-6-yl)ethyl)piperazin-1-yl)-4-methyl-2,4-dihydro-5H-pyrazolo[4,3-b]pyridin-5-one] | 94 | 200
CC[C@@H]1CN(c2cc(=O)n(C)c3cn(CC#N)nc23)[C@@H](C)CN1C(C)c1ccc2nccnc2c1 (mixture of isomers) [Compound A97, 2-(7-((2S,5R)-5-ethyl-2-methyl-4-(1-(quinoxalin-6-yl)ethyl)piperazin-1-yl)-4-methyl-5-oxo-4,5-dihydro-2H-pyrazolo[4,3-b]pyridin-2-yl)acetonitrile] | 1 | 999
CC[C@H]1CN(C(C)c2ccc3nccnc3c2)[C@H](CC)CN1c1cc(=O)n(C)c2cn(CC#N)nc12 (single isomer, unassigned) [Compound A28a] | 7.6 | 490
CC[C@H]1CN(C(C)c2ccc3nccnc3c2)[C@H](CC)CN1c1cc(=O)n(C)c2cn(CC#N)nc12 (single isomer, unassigned) [Compound A28b] | 463 | 983
COCc1cc(F)ccc1C(C)N1C[C@H](C)N(c2cc(=O)n(C)c3cn(CC#N)nc23)C[C@H]1C (single isomer, unassigned) [Compound A29b] | 57 | 4060
CC(c1ccc2c(c1)OCCO2)N1C[C@H](C)N(c2cc(=O)n(C)c3cn(CC#N)nc23)C[C@H]1C (single isomer, unassigned) [Compound A43a] | 5080 | 37700
CC(c1ccc2c(c1)OCCO2)N1C[C@H](C)N(c2cc(=O)n(C)c3cn(CC#N)nc23)C[C@H]1C (single isomer, unassigned) [Compound A43b] | 50 | 6570
CC(c1ccc2c(c1)OC(C)(C)CO2)N1C[C@H](C)N(c2cc(=O)n(C)c3cn(CC#N)nc23)C[C@H]1C (single isomer, unassigned) [Compound A46f] | 2140 | 59600
CC[C@H]1CN(C(C)c2ccc(C(F)(F)F)cc2F)[C@H](CC)CN1c1cc(=O)n(C)c2cn(CC#N)nc12 (single isomer, unassigned) [Compound A69a] | 25 | 130
CC[C@H]1CN(C(C)c2ccc(C(F)(F)F)cc2F)[C@H](CC)CN1c1cc(=O)n(C)c2cn(CC#N)nc12 (single isomer, unassigned) [Compound A69b] | 4900 | 3000
CC[C@H]1CN(C(C)c2ccc(F)cc2OC)[C@H](CC)CN1c1cc(=O)n(C)c2cn(CC#N)nc12 (single isomer, unassigned) [Compound A71a] | 2100 | 42000
CC[C@H]1CN(C(C)c2ccc(F)cc2OC)[C@H](CC)CN1c1cc(=O)n(C)c2cn(CC#N)nc12 (single isomer, unassigned) [Compound A71b] | 130 | 40000
CC[C@H]1CN(C(C)c2ccc(F)cn2)[C@H](CC)CN1c1cc(=O)n(C)c2cn(CC#N)nc12 (single isomer, unassigned) [Compound A74a] | 224 | 2.2
CC[C@H]1CN(C(C)c2ccc(F)cn2)[C@H](CC)CN1c1cc(=O)n(C)c2cn(CC#N)nc12 (single isomer, unassigned) [Compound A74b] | 5450 | 187
CC[C@H]1CN([C@H](C)c2ncccc2OC)[C@H](CC)CN1c1cc(=O)n(C)c2cn(CC#N)nc12 (single isomer, unassigned) [Compound A92b] |  | > 10000
CC[C@@H]1CN(c2cc(=O)n(C)c3cn(CC#N)nc23)[C@@H](C)CN1C(C)c1ccc2nccnc2c1 (single isomer, unassigned) [Compound A97a] | 8.6 | 3380
CC[C@@H]1CN(c2cc(=O)n(C)c3cn(CC#N)nc23)[C@@H](C)CN1C(C)c1ccc2nccnc2c1 (single isomer, unassigned) [Compound A97b] | 1610 | 5120
COc1cc(F)ccc1C(C)N1C[C@H](C)N(c2cc(=O)n(C)c3cn(CC#N)nc23)C[C@H]1C (stereo partly drawn) [Compound A248, 2-(7-((2S,5R)-4-(1-(2-omethoxy-4-fluorophenyl)ethyl)-2,5-dimethylpiperazin-1-yl)-4-methyl-5-oxo-4,5-dihydro-2H-pyrazolo[4,3-b]pyridin-2-yl)acetonitrile] |  | > 10000

Results, then the compound that gave them:

IC50 (DGKζ) [nM] | IC50 (DGKα) [nM] | Structure (SMILES)
763 | 3660 | Cc1cc2cc(C(C)N3C[C@H](C)N(c4cc(=O)n(C)c5cn(CC#N)nc45)C[C@H]3C)ccc2cn1 (mixture of isomers) [Compound A304, 2-(7-((2S,5R)-2,5-dimethyl-4-(1-(3-methylisoquinolin-6-yl)ethyl)piperazin-1-yl)-4-methyl-5-oxo-4,5-dihydro-2H-pyrazolo[4,3-b]pyridin-2-yl)acetonitrile]
107 | 208 | CC[C@H]1CN(C(C)c2ccc(C(F)(F)F)cc2)[C@H](CC)CN1c1cc(=O)n(C)c2cn(CC#N)nc12 (mixture of isomers) [Compound A103, 2-(7-((2S,5R)-2,5-diethyl-4-(1-(4-(trifluoromethyl)phenyl)ethyl)piperazin-1-yl)-4-methyl-5-oxo-4,5-dihydro-2H-pyrazolo[4,3-b]pyridin-2-yl)acetonitrile]
15 | 1060 | CC[C@H]1CN(C(C)c2ccc3nccnc3c2)[C@H](C)CN1c1cc(=O)n(C)c2cn(CC#N)nc12 (single isomer, unassigned) [Compound A98a]
1760 | > 10000 | CC[C@H]1CN(C(C)c2ccc3nccnc3c2)[C@H](C)CN1c1cc(=O)n(C)c2cn(CC#N)nc12 (single isomer, unassigned) [Compound A98b]
241 | 403 | CC[C@H]1CN(C(C)c2ccc(C(F)(F)F)cc2)[C@H](CC)CN1c1cc(=O)n(C)c2cn(CC#N)nc12 (single isomer, unassigned) [Compound A103a]
2690 | 809 | CC[C@H]1CN(C(C)c2ccc(C(F)(F)F)cc2)[C@H](CC)CN1c1cc(=O)n(C)c2cn(CC#N)nc12 (single isomer, unassigned) [Compound A103b]
2190 | > 10000 | CC[C@H]1CN(C(C)c2ccccc2OC)[C@H](CC)CN1c1cc(=O)n(C)c2cn(CC#N)nc12 (single isomer, unassigned) [Compound A106a]
183 | > 10000 | CC[C@H]1CN(C(C)c2ccccc2OC)[C@H](CC)CN1c1cc(=O)n(C)c2cn(CC#N)nc12 (single isomer, unassigned) [Compound A106b]
> 10000 | > 10000 | CC[C@H]1CN(C(C)c2ccc(C)cc2C(F)(F)F)[C@H](CC)CN1c1cc(=O)n(C)c2cn(CC#N)nc12 (single isomer, unassigned) [Compound A115a]
378 | 105000 | CC[C@H]1CN(C(C)c2ccc(C)cc2C(F)(F)F)[C@H](CC)CN1c1cc(=O)n(C)c2cn(CC#N)nc12 (single isomer, unassigned) [Compound A115b]
15 | 8090 | CC[C@H]1CN(C(C)c2cnn(CC)c2C(F)(F)F)[C@H](CC)CN1c1cc(=O)n(C)c2cn(CC#N)nc12 (single isomer, unassigned) [Compound A119a]
 | > 10000 | CC[C@H]1CN([C@H](C)c2ccc3nccnc3c2)[C@H](CC)CN1c1cc(=O)n(C(C)C)c2cn(CC#N)nc12 (single isomer, unassigned) [Compound A190b]
 | > 10000 | CC[C@H]1CN([C@H](C)c2nc(Cl)cn2CC)[C@H](CC)CN1c1cc(=O)n(C)c2cn(CC#N)nc12 (single isomer, unassigned) [Compound A191b]
